Measurements from patent publication US4472404A, “8-Quinolinyl carbamates and their use as urinary tract antimicrobials” (priority 1982, dated 1984).
Converted amounts (≈) assume the structure as drawn.

Assays:
Type in all cases: cell-based
Aspergillus niger = assay: Agar-plate minimum inhibitory concentration (Example 12); conditions: agar, 72-120 hours, read-out: Minimum Inhibitory Concentration
Experimental: (§1) The test compound was added to molten agar as a solution (when conveniently soluble in a solvent such as dimethylformamide) or a suspension forming a mixture having a concentration of 0.05 percent (500 ppm). The mixture was stirred and poured into plates to harden. When hardened, the plates were inoculated with various bacteria and fungi. The bacteria-inoculated plates were incubated at 37° C. for 24 hours, while the fungi-inoculated plates were incubated for about 72-120 hours. Following incubation, the plates were examined for growth or inhibition of the respective organisms.
(§2) After the initial readings, compounds showing sufficient activity were re-tested at various concentrations to determine the minimum inhibitory concentration (in ppm) of the compounds of the invention against the various bacteria and fungi tested.

Bacillus subtilis = assay: as above; conditions: agar, 37° C., 24 hours, read-out: Minimum Inhibitory Concentration
Experimental: as §1, §2

Candida albicans = assay: as above; conditions: agar, 72-120 hours, read-out: Minimum Inhibitory Concentration
Experimental: as §1, §2

Candida pelliculosa = assay: as above; conditions: Hansenula anomala; Candida pelliculosa; agar, 72-120 hours; read-out: Minimum Inhibitory Concentration
Experimental: as §1, §2

Ceratocystis ips = assay: as above; conditions: Ceratocystis ips; agar, 72-120 hours; read-out: Minimum Inhibitory Concentration
Experimental: as §1, §2

Salmonella typhosa = assay: as above; conditions: Salmonella enterica; Salmonella typhosa; agar, 37° C., 24 hours; read-out: Minimum Inhibitory Concentration
Experimental: as §1, §2

Streptococcus mutans = assay: as above; conditions: agar, 37° C., 24 hours, read-out: Minimum Inhibitory Concentration
Experimental: as §1, §2

[1] = test system: Trichophyton mentagrophytes; assay: as above; conditions: agar, 72-120 hours, read-out: Minimum Inhibitory Concentration
Experimental: as §1, §2

[2] = test system: Enterobacter aerogenes ATCC 13048; assay: Minimum inhibitory concentration, urinary tract organisms (Example 13); conditions: Klebsiella aerogenes, ATCC13048; Ea 13048; read-out: Minimum Inhibitory Concentration
Experimental: as §1, §2
(§3) Following a procedure substantially the same as that described in Example 12, the minimum inhibitory concentration for the compounds described herein was determined for various organisms representative of those commonly associated with urinary tract infections.
(§4) The organisms used in this procedure and the abbreviations designated in Table 3 are as follows: […]

[3] = test system: Escherichia coli ATCC 11229; assay: as above; conditions: ATCC11229, Ec 11229, read-out: Minimum Inhibitory Concentration
Experimental: as §1, §2, §3, §4

[4] = test system: Escherichia coli ATCC 25922; assay: as above; conditions: ATCC25922, Ec 25922, read-out: Minimum Inhibitory Concentration
Experimental: as §1, §2, §3, §4

[5] = test system: Escherichia coli ATCC 4157; assay: as above; conditions: ATCC4157, Ec 4157, read-out: Minimum Inhibitory Concentration
Experimental: as §1, §2, §3, §4

[6] = test system: Escherichia coli ATCC 9723; assay: as above; conditions: ATCC9723, Ec 9723, read-out: Minimum Inhibitory Concentration
Experimental: as §1, §2, §3, §4

[7] = test system: Klebsiella pneumoniae ATCC 23357; assay: as above; conditions: ATCC23357, Kp 23357, read-out: Minimum Inhibitory Concentration
Experimental: as §1, §2, §3, §4

[8] = test system: Klebsiella pneumoniae M-1; assay: as above; conditions: M1, Kp M-1, read-out: Minimum Inhibitory Concentration
Experimental: as §1, §2, §3, §4

[9] = test system: Klebsiella pneumoniae M-2; assay: as above; conditions: M2, Kp M-2, read-out: Minimum Inhibitory Concentration
Experimental: as §1, §2, §3, §4

[10] = test system: Klebsiella pneumoniae M-6; assay: as above; conditions: M6, Kp M-6, read-out: Minimum Inhibitory Concentration
Experimental: as §1, §2, §3, §4

Proteus mirabilis 470/1 = assay: as above; conditions: Pm 470/1, read-out: Minimum Inhibitory Concentration
Experimental: as §1, §2, §3, §4

[11] = test system: Pseudomonas aeruginosa ATCC 10145; assay: as above; conditions: ATCC10145, Pa 10145, read-out: Minimum Inhibitory Concentration
Experimental: as §1, §2, §3, §4

[12] = test system: Pseudomonas aeruginosa ATCC 27853; assay: as above; conditions: ATCC27853, Pa 27853, read-out: Minimum Inhibitory Concentration
Experimental: as §1, §2, §3, §4

[13] = test system: Pseudomonas aeruginosa ATCC 7700; assay: as above; conditions: ATCC7700, Pa 7700, read-out: Minimum Inhibitory Concentration
Experimental: as §1, §2, §3, §4

[14] = test system: Pseudomonas aeruginosa PRD-10; assay: as above; conditions: PRD10, Pa PRD-10, read-out: Minimum Inhibitory Concentration
Experimental: as §1, §2, §3, §4

Serratia marcescens M-1 = assay: as above; conditions: M1, Sr M-1, read-out: Minimum Inhibitory Concentration
Experimental: as §1, §2, §3, §4

[15] = test system: Staphylococcus aureus ATCC 25923; assay: as above; conditions: ATCC25923, Sa 25923, read-out: Minimum Inhibitory Concentration
Experimental: as §1, §2, §3, §4

Row | Compound | MIC (Aspergillus niger) | MIC (Bacillus subtilis) | MIC (Candida albicans) | MIC (Candida pelliculosa) | MIC (Ceratocystis ips) | MIC [2] | MIC [3] | MIC [4] | MIC [5] | MIC [6] | MIC [7] | MIC [8] | MIC [9] | MIC [10] | MIC (Proteus mirabilis 470/1) | MIC [12] | MIC [13] | MIC [14] | MIC (Serratia marcescens M-1) | MIC [15] | further results
1 | CCOC(=O)CNC(=O)Oc1c(Cl)cc(Cl)c2cccnc12 [Example 4, Ethyl N-(((5,7-dichloro-8-quinolinyl)oxy)carbonyl)glycinate] | 10 µg/mL (≈ 29.1 µM) | 1 µg/mL (≈ 2.91 µM) | 10 µg/mL (≈ 29.1 µM) | 5 µg/mL (≈ 14.6 µM) | 50 µg/mL (≈ 146 µM) | 25 µg/mL (≈ 72.9 µM) | 10 µg/mL (≈ 29.1 µM) | 10 µg/mL (≈ 29.1 µM) | 10 µg/mL (≈ 29.1 µM) | 10 µg/mL (≈ 29.1 µM) | 25 µg/mL (≈ 72.9 µM) | 25 µg/mL (≈ 72.9 µM) | 25 µg/mL (≈ 72.9 µM) | 25 µg/mL (≈ 72.9 µM) | 10 µg/mL (≈ 29.1 µM) | 50 µg/mL (≈ 146 µM) | 50 µg/mL (≈ 146 µM) | 50 µg/mL (≈ 146 µM) | 25 µg/mL (≈ 72.9 µM) | 10 µg/mL (≈ 29.1 µM) | MIC (Salmonella typhosa): 10 µg/mL (≈ 29.1 µM); MIC (Streptococcus mutans): 500 µg/mL (≈ 1460 µM); MIC [1]: 10 µg/mL (≈ 29.1 µM); MIC [11]: 10 µg/mL (≈ 29.1 µM)
2 | CCOC(=O)CNC(=O)Oc1cccc2cccnc12 [Example 9, Ethyl N-(((8-quinolinyl)oxy)carbonyl)glycinate] | 100 µg/mL (≈ 365 µM) | 10 µg/mL (≈ 36.5 µM) | 100 µg/mL (≈ 365 µM) | 50 µg/mL (≈ 182 µM) | 100 µg/mL (≈ 365 µM) | 100 µg/mL (≈ 365 µM) | 75 µg/mL (≈ 273 µM) | 75 µg/mL (≈ 273 µM) | 75 µg/mL (≈ 273 µM) | 75 µg/mL (≈ 273 µM) | 50 µg/mL (≈ 182 µM) | 100 µg/mL (≈ 365 µM) | 100 µg/mL (≈ 365 µM) | 75 µg/mL (≈ 273 µM) | 75 µg/mL (≈ 273 µM) | 250 µg/mL (≈ 911 µM) | 500 µg/mL (≈ 1820 µM) | 500 µg/mL (≈ 1820 µM) | 100 µg/mL (≈ 365 µM) | 10 µg/mL (≈ 36.5 µM) | MIC (Salmonella typhosa): 50 µg/mL (≈ 182 µM); MIC (Streptococcus mutans): 5 µg/mL (≈ 18.2 µM); MIC [1]: 50 µg/mL (≈ 182 µM); MIC [11]: 50 µg/mL (≈ 182 µM)
3 | CCOC(=O)CNC(=O)Oc1ccc(Cl)c2cccnc12 [Example 1, Ethyl N-(((5-chloro-8-quinolinyl)oxy)-carbonyl)glycinate] | 10 µg/mL (≈ 32.4 µM) | 10 µg/mL (≈ 32.4 µM) | 10 µg/mL (≈ 32.4 µM) | 10 µg/mL (≈ 32.4 µM) | 50 µg/mL (≈ 162 µM) | 50 µg/mL (≈ 162 µM) | 25 µg/mL (≈ 81 µM) | 25 µg/mL (≈ 81 µM) | 25 µg/mL (≈ 81 µM) | 25 µg/mL (≈ 81 µM) | 25 µg/mL (≈ 81 µM) | 50 µg/mL (≈ 162 µM) | 50 µg/mL (≈ 162 µM) | 25 µg/mL (≈ 81 µM) | 50 µg/mL (≈ 162 µM) | 100 µg/mL (≈ 324 µM) | 100 µg/mL (≈ 324 µM) | 100 µg/mL (≈ 324 µM) | 50 µg/mL (≈ 162 µM) | ≤ 5 µg/mL | MIC (Salmonella typhosa): 50 µg/mL (≈ 162 µM); MIC (Streptococcus mutans): 100 µg/mL (≈ 324 µM); MIC [1]: 10 µg/mL (≈ 32.4 µM); MIC [11]: 25 µg/mL (≈ 81 µM)
4 | CCOC(=O)CNC(=O)Oc1c(Br)cc(Br)c2cccnc12 [Example 2, Ethyl N-(((5,7-dibromo-8-quinolinyl)oxy)carbonyl)glycinate] | 50 µg/mL (≈ 116 µM) | 0.5 µg/mL (≈ 1.16 µM) | 50 µg/mL (≈ 116 µM) | 10 µg/mL (≈ 23.1 µM) | 50 µg/mL (≈ 116 µM) | 75 µg/mL (≈ 174 µM) | 25 µg/mL (≈ 57.9 µM) | 25 µg/mL (≈ 57.9 µM) | 25 µg/mL (≈ 57.9 µM) | 25 µg/mL (≈ 57.9 µM) | 250 µg/mL (≈ 579 µM) | 50 µg/mL (≈ 116 µM) | 25 µg/mL (≈ 57.9 µM) | 25 µg/mL (≈ 57.9 µM) | 25 µg/mL (≈ 57.9 µM) | 75 µg/mL (≈ 174 µM) | 250 µg/mL (≈ 579 µM) | 75 µg/mL (≈ 174 µM) | 250 µg/mL (≈ 579 µM) | 25 µg/mL (≈ 57.9 µM) | MIC (Salmonella typhosa): 50 µg/mL (≈ 116 µM); MIC (Streptococcus mutans): 50 µg/mL (≈ 116 µM); MIC [1]: 50 µg/mL (≈ 116 µM); MIC [11]: 25 µg/mL (≈ 57.9 µM)
5 | O=C(NCCCl)Oc1ccc(Cl)c2cccnc12 [Example 6, 5-Chloro-8-quinolinyl N-(2-chloroethyl)carbamate] |  |  |  |  |  | 500 µg/mL (≈ 1750 µM) | 75 µg/mL (≈ 263 µM) | 75 µg/mL (≈ 263 µM) | 250 µg/mL (≈ 877 µM) | 50 µg/mL (≈ 175 µM) | 250 µg/mL (≈ 877 µM) | 250 µg/mL (≈ 877 µM) | 500 µg/mL (≈ 1750 µM) | 250 µg/mL (≈ 877 µM) | 250 µg/mL (≈ 877 µM) | 500 µg/mL (≈ 1750 µM) | 500 µg/mL (≈ 1750 µM) | 500 µg/mL (≈ 1750 µM) | 500 µg/mL (≈ 1750 µM) | < 5 µg/mL | 
